Results as given in article PMC13050480, “Preclinical Development of GT-14, a Novel Inhibitor of Gαi2 Protein: Comprehensive Evaluation of Physicochemical, Metabolic Characteristics and Tissue Distribution” (The AAPS journal, 2025).

Columns and labels:
[1] = Lipophilicity (logP), octanol-water shake-flask method; type: physicochemical; conditions: 1-octanol/water, room temperature, triplicate, read-out: experimental logP (octanol-water)
Procedure: The lipophilicity of GT-14 as indicated by the logP value (octanol–water partition coefficient) was determined by the traditional shake-flask method. Briefly, equal volumes (1 mL) of 1-octanol and water were added to an amber glass bottle and allowed to equilibrate on a shaker for 24 h. Following equilibration, approx. 1 mg of GT-14 (dissolved in Acetonitrile) was added to the two-phase system and allowed to shake continuously at room temperature for 72 h. The two phases were separated using a separating funnel and then centrifuged at 15,000 rpm for 10 min. The concentration of GT-14 in the octanol and water phases was determined by UPLC assay. The experiment was conducted in triplicate.
The logP was calculated by the equation: logP=logOctanolConc./AqueousConc.

[2] = Stability of GT-14 in rat urine; type: in vitro ADME; conditions: for Stability at -20 °C (48 hrs) in rat urine: n=5, in %
Procedure: Blank rat urine was spiked with GT-14 at conc. of 25, 50, 500 and 1000 ng/mL. The samples were kept at -20°C for 48 hours (n=5, Mean ± SD)

logP at 72 h [1]: 2.38
stability in rat urine (in words) [2]: stable
Stability at -20 °C (48 hrs) in rat urine ([2]; 25 ng/ml): 109.28 ± 2.57
Stability at -20 °C (48 hrs) in rat urine ([2]; 50 ng/ml): 110.25 ± 2.36
Stability at -20 °C (48 hrs) in rat urine ([2]; 500 ng/ml): 105.71 ± 3.76
Stability at -20 °C (48 hrs) in rat urine ([2]; 1000 ng/ml): 101.43 ± 2.58
SMILES: C/C(=N\c1ccc(O)cc1)c1cc2ccccc2n1C [GT-14, (E)-4-((1-(1-methyl-1H-indol-2-yl)ethylidene)amino)phenol]
